Where no end group is shown, it is not given here.

Data on one sequence can be found in US20170131285A1, “METHODS AND COMPOSITIONS FOR DIAGNOSING, MONITORING AND TREATING CANCER” (INSERM (Institut National de la Sante et de la Recherche …, priority 2014, published 2017).

In one assay the target is T1, human HSP70/HSP40 (Homo sapiens, UniProt P0DMV8).
T1 construct: purchased StressGen (EnzoLife)
In words: Refolding luciferase assay (HSP70 chaperone activity). The format is biochemical. As to conditions: A8 5 μM to 50 μM, 1 hour at 25° C., purified recombinant proteins. The procedure: FIG. 3: A8 blocks HSP70/TLR2 association. (A) Immunoprecipitation of TLR2 in the presence of increasing concentrations of A8 (from 0.3 μM to 1.8 μM) was followed by HSP70 immunoblotting. IP control, no relevant IgG antibody. (B) Denatured luciferase (D) was incubated in the absence or presence of human HSP70 and, when indicated, increasing concentrations of A8 (C1=5 μM; C2=15 μM; C3=25 μM and C4=50 μM) for 1 hour at 25° C. Following incubation, the luciferase substrate D-luciferin was added and within 10 minutes the total light units emitted were collected for 10 seconds at 560 nm using a Wallac (Victor 3) spectrophotometer. *, p<0.05. (C) Biolayer interferometry to determine association and dissociation curves of HSP70 (concentration range from 2.5 μM to 156 nM) with biotinylated TRL2 immobilized on streptavidin sensor tips. (D) Association and dissociation curves of HSP70 (concentration range from 50 nM to 1.28 nM) with biotinylated A8 immobilized on streptavidin sensor tips. Curves in C and D represent mean values of triplicate measurements for each concentration. […]

Another assay concerns MSC2 cells. The assay is described as follows: pSTAT3 western blot in MSC2 cells incubated with tumor-derived exosomes. The format is cell-based. As to the method: FIG. 4: A8 blocks the activation and proliferation of MSC2 cells. (A) IL-6 concentration was determined by ELISA in the supernatant of MSC2 cells incubated or not for 24 h with exosomes (from B16F10) in the presence or absence of A8. *, p<0.05, (n=3). (B) A representative image of a western blot showing the kinetics of STAT3 phosphorylation in MCS2 cells incubated or not with exosomes isolated from B16F10, CT26 or HCT116 cells together with a peptide control (TDE) or A8 (TDE/A8). 14-3-3 is used as a loading control. In the right panels, the amount of pSTAT3 was quantified by densitometric analysis. *, p<0.05, n=4.
Five millions of MSC2 cells were incubated with or without exosomes isolated from B16F10, CT26, HCT116 or SW480 cells in the presence or absence of A8 during 4 h or 6 h. Cells were isolated, lysed and analysed for pSTAT3 by western blotting.
(§1) MSC2 (2·10^6) or MDSC (2·10^6) were incubated alone or with exosomes (from B16F10, CT26, HCT116, SW480) in the absence or presence of A8 or A17 (16 μM) during 6 hours (RPMI 10% FBS, 5% of CO2 at 37° C.). Every 2 hours, […] cells were sampled and centrifugated 5 min at 300 g. Cells were lysed in lysis buffer (50 mM HEPES (pH 7.6), 150 mM NaCl, 5 mM EDTA, and 0.1% NP40 and anti-phosphatases, Roche). Then, pSTAT3 and STAT3 expression were analyzed by western blotting.

The subject of the next assay is primary MDSC cells. The assay is described as follows: Activation of primary MDSC by exosomes (pSTAT3, IL-6, IL-10, IFNγ in T cell co-culture). It counts as cell-based. Particulars: primary MDSC from mouse spleen, exosomes from B16F10, A8 16 μM. As to the method:
FIG. 8: A8 blocks the activation of primary MDSC cells. A) A representative image of a western blot showing the kinetics of STAT3 phosphorylation in MDSC cells incubated or not with exosomes isolated from B16F10 cells together with a peptide control (MDSC/TDE) or A8 (MDSC/TDE/A8). B-C) IL-6 (B) and IL-10 (C) concentration was determined by ELISA in the supernatant of MDSC cells incubated or not for 24 h with exosomes (from B16F10) in the absence or presence of A8 (16 μM). D) IFNγ concentration was determined by ELISA in the supernatant of co-cultured MDSC and T lymphocytes incubated or not for 5 days with exosomes (from B16F10) in the absence or presence of A8 ([…]). **, p<0.01; *, p<0.1 (n=3).
as §1
Single-cell suspensions were prepared from spleens, and red cells were removed using ammonium chloride lysis buffer. […] All events were acquired by a BD Bioscience LSR-II device and analyzed with FlowJo (Tree Star). […]

T1 sequence (P0DMV8 whole entry): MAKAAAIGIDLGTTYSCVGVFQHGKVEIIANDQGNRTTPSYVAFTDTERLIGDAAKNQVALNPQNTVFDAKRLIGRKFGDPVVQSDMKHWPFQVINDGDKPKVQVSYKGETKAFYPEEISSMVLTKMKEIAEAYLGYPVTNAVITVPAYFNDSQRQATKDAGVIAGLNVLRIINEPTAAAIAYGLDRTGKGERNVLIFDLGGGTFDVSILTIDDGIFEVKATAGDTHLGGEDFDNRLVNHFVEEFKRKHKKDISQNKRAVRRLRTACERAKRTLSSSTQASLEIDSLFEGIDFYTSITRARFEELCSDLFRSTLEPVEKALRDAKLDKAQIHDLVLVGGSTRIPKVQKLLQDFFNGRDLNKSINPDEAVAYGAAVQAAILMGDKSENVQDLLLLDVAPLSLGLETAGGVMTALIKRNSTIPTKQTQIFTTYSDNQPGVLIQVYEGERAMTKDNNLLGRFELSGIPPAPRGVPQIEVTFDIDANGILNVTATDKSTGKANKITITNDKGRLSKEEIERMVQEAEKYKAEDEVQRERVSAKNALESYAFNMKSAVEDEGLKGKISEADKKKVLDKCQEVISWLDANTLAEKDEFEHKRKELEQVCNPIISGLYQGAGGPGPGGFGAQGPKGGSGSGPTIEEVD

As to SPWPRPTY [Aptamer A8, SPWPRPTY], at human HSP70/HSP40, the “HSP70 chaperone activity (luciferase refolding)” value is on record as “blocked, in a dose-dependent manner”. Further, in the assay with MSC2 cells (exosomes from CT26, B16F10, HCT116, SW480, 4 h and 6 h, aptamer 16 μM), the “STAT3 phosphorylation (activation) in MSC2 induced by tumor-derived exosomes” value is “inhibited the ability of tumor-derived exosomes to activate STAT3”. The “MDSC activation (STAT3 phosphorylation in MSC2) in the absence of tumor-derived exosomes” value in the assay with MSC2 cells (no exosomes) is reported as “does not have a direct effect in MDSC activation”. Moreover, the “MDSC activation markers (IL6 release, STAT-3 phosphorylation, IL10 release, IFNgamma release by T cells)” value in the assay on primary MDSC cells is “blocks all MDSC activation markers”.
